According to patent US5292733A, “Cephalosporin compounds” (Lucky Limited, priority 1991, dated 1994):
Converted amounts (≈) assume the structure as drawn.

Legend:
Assay in all cases: Antibacterial activity MIC, two-fold agar dilution
Format in all cases: cell-based
[1] = test system: Acinetobacter calcoaceticus ATCC 15473; conditions: Acinetobacter calcoaceticus ATCC 15473, Muller-Hinton agar, 37° C., 20 hours; for MIC: ATCC15473, read-out: Antibacterial Activity MIC
Procedure: (§1) These MIC values were taken by employing a two-fold dilution method: that is, two-fold serial dilutions of each of the test compounds were made and dispersed in a Muller-Hinton agar medium; 2 μl of the standard test strain which had the 10^7 CFU(Colony Forming Unit) per ml was inoculated on the medium; and these were incubated at 37° C. for 20 hours. The results of the MIC tests are shown Table 1.

[2] = test system: Bacillus cereus ATCC 11778; conditions: Bacillus cereus ATCC 11778, Muller-Hinton agar, 37° C., 20 hours; for MIC: ATCC11778, read-out: Antibacterial Activity MIC
Procedure: as §1

[3] = test system: Bacillus megaterium ATCC 9885; conditions: Bacillus megaterium ATCC 9885, Muller-Hinton agar, 37° C., 20 hours; for MIC: Priestia megaterium, ATCC9885, read-out: Antibacterial Activity MIC
Procedure: as §1

[4] = test system: Citrobacter freundii ATCC 8090; conditions: Citrobacter freundii ATCC 8090, Muller-Hinton agar, 37° C., 20 hours; for MIC: ATCC8090, read-out: Antibacterial Activity MIC
Procedure: as §1

[5] = test system: Enterobacter aerogenes ATCC 29751; conditions: Enterobacter aerogenes ATCC 29751, Muller-Hinton agar, 37° C., 20 hours; for MIC: Klebsiella aerogenes, ATCC29751, read-out: Antibacterial Activity MIC
Procedure: as §1

[6] = test system: Enterobacter cloacae ATCC 27508; conditions: Enterobacter cloacae ATCC 27508, Muller-Hinton agar, 37° C., 20 hours; for MIC: ATCC27508, read-out: Antibacterial Activity MIC
Procedure: as §1

[7] = test system: Escherichia coli ATCC 10536; conditions: 37° C., 20 hours; for MIC: ATCC10536, Muller-Hinton agar
Procedure: as §1

[8] = test system: Escherichia coli ATCC 25922; conditions: 37° C., 20 hours; for MIC: ATCC25922, Muller-Hinton agar
Procedure: as §1

[9] = test system: Klebsiella pneumoniae ATCC 10031; conditions: Klebsiella pneumoniae ATCC 10031, Muller-Hinton agar, 37° C., 20 hours; for MIC: ATCC10031, read-out: Antibacterial Activity MIC
Procedure: as §1

[10] = test system: Micrococcus luteus ATCC 9341; conditions: Micrococcus luteus ATCC 9341, Muller-Hinton agar, 37° C., 20 hours; for MIC: ATCC9341, read-out: Antibacterial Activity MIC
Procedure: as §1

[11] = test system: Morganella morganii ATCC 8076h; conditions: Muller-Hinton agar, 37° C., 20 hours; for MIC: ATCC8076H
Procedure: as §1

[12] = test system: Proteus mirabilis ATCC 25933; conditions: Proteus mirabilis ATCC 25933, Muller-Hinton agar, 37° C., 20 hours; for MIC: ATCC25933, read-out: Antibacterial Activity MIC
Procedure: as §1

[13] = test system: Proteus vulgaris ATCC 6059; conditions: Proteus vulgaris ATCC 6059, Muller-Hinton agar, 37° C., 20 hours; for MIC: ATCC6059, read-out: Antibacterial Activity MIC
Procedure: as §1

[14] = test system: Providencia rettgeri ATCC 9250; conditions: 37° C., 20 hours; for MIC: ATCC9250, Muller-Hinton agar
Procedure: as §1

[15] = test system: Pseudomonas aeruginosa ATCC 10145; conditions: Pseudomonas aeruginosa ATCC 10145, Muller-Hinton agar, 37° C., 20 hours; for MIC: ATCC10145, read-out: Antibacterial Activity MIC
Procedure: as §1

[16] = test system: Pseudomonas aeruginosa ATCC 25619; conditions: Pseudomonas aeruginosa ATCC 25619, Muller-Hinton agar, 37° C., 20 hours; for MIC: ATCC25619, read-out: Antibacterial Activity MIC
Procedure: as §1

[17] = test system: Pseudomonas aeruginosa ATCC 27853; conditions: Pseudomonas aeruginosa ATCC 27853, Muller-Hinton agar, 37° C., 20 hours; for MIC: ATCC27853, read-out: Antibacterial Activity MIC
Procedure: as §1

[18] = test system: Salmonella typhimurium ATCC 14028; conditions: Salmonella typhimurium ATCC 14028, Muller-Hinton agar, 37° C., 20 hours; for MIC: Salmonella enterica, read-out: Antibacterial Activity MIC
Procedure: as §1

[19] = test system: Serratia marcescens ATCC 27117; conditions: Serratia marcescens ATCC 27117, Muller-Hinton agar, 37° C., 20 hours; for MIC: ATCC27117, read-out: Antibacterial Activity MIC
Procedure: as §1

[20] = test system: Shigella flexneri ATCC 11836; conditions: 37° C., 20 hours; for MIC: ATCC11836, Muller-Hinton agar
Procedure: as §1

[21] = test system: Shigella sonnei ATCC 11060; conditions: 37° C., 20 hours; for MIC: ATCC11060, Muller-Hinton agar
Procedure: as §1

[22] = test system: Staphylococcus aureus ATCC 10537; conditions: Staphylococcus aureus ATCC 10537, Muller-Hinton agar, 37° C., 20 hours; for MIC: ATCC10537, read-out: Antibacterial Activity MIC
Procedure: as §1

[23] = test system: Staphylococcus aureus ATCC 6538p; conditions: Staphylococcus aureus ATCC 6538p, Muller-Hinton agar, 37° C., 20 hours; for MIC: ATCC6538P, read-out: Antibacterial Activity MIC
Procedure: as §1

[24] = test system: Staphylococcus epidermidis ATCC 12228; conditions: Staphylococcus epidermidis ATCC 12228, Muller-Hinton agar, 37° C., 20 hours; for MIC: ATCC12228, read-out: Antibacterial Activity MIC
Procedure: as §1

[25] = test system: Streptococcus faecalis ATCC 29212; conditions: Streptococcus faecalis ATCC 29212, Muller-Hinton agar, 37° C., 20 hours; for MIC: Enterococcus faecalis, ATCC29212, read-out: Antibacterial Activity MIC
Procedure: as §1

Compound: (6R,7R)-7-[(Z)-2-(2-aminothiazol-4-yl)-2-(2-propyn-1-oxyimino)acetamido]-3-(2,6-diamino-3-methylpyrimidinium-4-yl)thiomethyl-3-cephem-4-carboxylate [Compound I-9]
- Antibacterial Activity MIC [1]: 2 mg/L
- Antibacterial Activity MIC [2]: 64 mg/L
- Antibacterial Activity MIC [3]: 0.13 mg/L
- Antibacterial Activity MIC [4]: 0.13 mg/L
- Antibacterial Activity MIC [5]: 0.5 mg/L
- Antibacterial Activity MIC [6]: 0.13 mg/L
- Antibacterial Activity MIC ([7]; Muller-Hinton agar): 0.016 mg/L
- Antibacterial Activity MIC ([8]; Muller-Hinton agar): 0.063 mg/L
- Antibacterial Activity MIC [9]: 0.063 mg/L
- Antibacterial Activity MIC [10]: 0.063 mg/L
- Antibacterial Activity MIC [11]: <= 0.008 μg/ml
- Antibacterial Activity MIC [12]: 0.016 mg/L
- Antibacterial Activity MIC [13]: 0.016 mg/L
- Antibacterial Activity MIC ([14]; Muller-Hinton agar): <= 0.008 μg/ml
- Antibacterial Activity MIC [15]: 16 mg/L
- Antibacterial Activity MIC [16]: 2 mg/L
- Antibacterial Activity MIC [17]: 8 mg/L
- Antibacterial Activity MIC [18]: 0.5 mg/L
- Antibacterial Activity MIC [19]: 0.5 mg/L
- Antibacterial Activity MIC ([20]; Muller-Hinton agar): 0.13 mg/L
- Antibacterial Activity MIC ([21]; Muller-Hinton agar): 0.13 mg/L
- Antibacterial Activity MIC [22]: 0.25 mg/L
- Antibacterial Activity MIC [23]: 0.25 mg/L
- Antibacterial Activity MIC [24]: 0.5 mg/L
- Antibacterial Activity MIC [25]: > 128 mg/L

Compound: CC[n+]1c(N)cc(SCC2=C(C(=O)[O-])N3C(=O)[C@@H](NC(=O)/C(=N\OCC(=O)O)c4csc(N)n4)[C@H]3SC2)nc1N [Compound I-18, (6R,7R)-7-[(Z)-2-(2-aminothiazol-4-yl)-2-(carboxymethoxyimino)acetamido]-3-(2,6-diamino-1-ethyl-pryrimidinium-4-yl)thiomethyl-3-cephem-4-carboxylate]
- MIC [1]: 16 mg/L (≈ 26.2 µM)
- MIC [2]: > 128 mg/L
- MIC [3]: 0.5 mg/L (≈ 0.82 µM)
- MIC [4]: 0.063 mg/L (≈ 0.103 µM)
- MIC [5]: 2 mg/L (≈ 3.28 µM)
- MIC [6]: 0.016 mg/L (≈ 0.0262 µM)
- MIC [7]: 0.063 mg/L (≈ 0.103 µM)
- MIC [8]: 0.063 mg/L (≈ 0.103 µM)
- MIC [9]: 0.031 mg/L (≈ 0.0508 µM)
- MIC [10]: 0.5 mg/L (≈ 0.82 µM)
- MIC [11]: ≤ 0.008 mg/L
- MIC [12]: 0.063 mg/L (≈ 0.103 µM)
- MIC [13]: 0.063 mg/L (≈ 0.103 µM)
- MIC [14]: ≤ 0.008 mg/L
- MIC [15]: 4 mg/L (≈ 6.56 µM)
- MIC [16]: 1 mg/L (≈ 1.64 µM)
- MIC [17]: 2 mg/L (≈ 3.28 µM)
- MIC [18]: 0.25 mg/L (≈ 0.41 µM)
- MIC [19]: 0.063 mg/L (≈ 0.103 µM)
- MIC [20]: 0.016 mg/L (≈ 0.0262 µM)
- MIC [21]: 0.063 mg/L (≈ 0.103 µM)
- MIC [22]: 4 mg/L (≈ 6.56 µM)
- MIC [23]: 4 mg/L (≈ 6.56 µM)
- MIC [24]: 2 mg/L (≈ 3.28 µM)
- MIC [25]: > 128 mg/L

Compound: C[n+]1c(SCC2=C(C(=O)[O-])N3C(=O)[C@@H](NC(=O)/C(=N\OC(C)(C)C(=O)O)c4csc(N)n4)[C@H]3SC2)cc(N)nc1N [Compound I-1]
- MIC [1]: 4 mg/L (≈ 6.41 µM)
- MIC [2]: 128 mg/L (≈ 205 µM)
- MIC [3]: 0.25 mg/L (≈ 0.401 µM)
- MIC [4]: 0.13 mg/L (≈ 0.208 µM)
- MIC [5]: 2 mg/L (≈ 3.21 µM)
- MIC [6]: 0.016 mg/L (≈ 0.0257 µM)
- MIC [7]: 0.13 mg/L (≈ 0.208 µM)
- MIC [8]: 0.13 mg/L (≈ 0.208 µM)
- MIC [9]: 0.031 mg/L (≈ 0.0497 µM)
- MIC [10]: 0.5 mg/L (≈ 0.802 µM)
- MIC [11]: ≤ 0.008 mg/L
- MIC [12]: 0.31 mg/L (≈ 0.497 µM)
- MIC [13]: 0.31 mg/L (≈ 0.497 µM)
- MIC [14]: ≤ 0.008 mg/L
- MIC [15]: 2 mg/L (≈ 3.21 µM)
- MIC [16]: 1 mg/L (≈ 1.6 µM)
- MIC [17]: 1 mg/L (≈ 1.6 µM)
- MIC [18]: 0.5 mg/L (≈ 0.802 µM)
- MIC [19]: 0.13 mg/L (≈ 0.208 µM)
- MIC [20]: 0.031 mg/L (≈ 0.0497 µM)
- MIC [21]: 0.25 mg/L (≈ 0.401 µM)
- MIC [22]: 4 mg/L (≈ 6.41 µM)
- MIC [23]: 8 mg/L (≈ 12.8 µM)
- MIC [24]: 2 mg/L (≈ 3.21 µM)
- MIC [25]: > 128 mg/L
